Source: patent US8168667B2 (Galapagos NV, priority 2006, dated 2012)
Where two headings read alike, the source gives them in different places.

Key:
[1] = tested on: castrated C57/B16J male mice; assay: Model of osteoporosis in male mice (trabecular BMD of tibia); format: in vivo; conditions: Mus musculus, sc, 672 h, ORX mice, 30 mg/kg subcutaneously daily, day 1 to 28, ORX = 0%, SHAM = 100%, read-out: efficacy in protecting mineral bone density
Description: C57/B16J male mice aged 12 weeks and weighing approximately 20-25 g (Charles River, Les Oncins, FRANCE) were operated on as described above with regard to the rats. Castration mimicked the bone loss caused by androgen deficit. The aim of the study is to evaluate the capacity of the compounds to preserve and/or increase the bone mass. This is evaluated by measuring the bone mineral density (BMD). This model has previously been documented by Sims et al. 2003 J. Clin. Invest. 111(9):1319-27.
The animals were separated randomly into various groups and were kept in an environment at 22±2° C. with an alternating day/night cycle of 12 hours and ad libitum access to food and drink.
The tested compounds were administered from post-surgery day 1 and until day 28 preceding sacrifice (day 29). The mice were treated daily under the conditions defined below: • 1. SHAM control group: Vehicle (10/90 ethanol/corn oil mixture) administered subcutaneously. • 2. ORX control group: Vehicle (10/90 ethanol/corn oil mixture) administered subcutaneously. • 3. Treated ORX group: The tested compounds were administered individually subcutaneously in the vehicle described above, in a dose of 30 mg/kg.
During necropsy, the mice were first weighed then decapitated. The two hindlimbs were then carefully disarticulated at the femoral neck. The right hindlimb was frozen at −20° C. Densitometric quantitative analysis was performed on the trabecular portion of the tibia proximal metaphysis using a tomo densitometer (Stratec SA+, Hologic, Norland).
The average of the trabecular BMD of the mice in the ORX control group was defined as 0%. The average of the trabecular BMD of the mice in the SHAM control group was defined as 100%. The efficacy of each product as a percentage was calculated using the formula: (BMDtreated−BMDORX)/(BMDSHAM−BMDORX)×100
A subsequent ANOVA test was used for statistical analysis to identify the differences between groups.

[2] = tested on: castrated immature young rats; assay: Adapted model of Hershberger's test (levator ani and ventral prostate weight); format: in vivo, Sprague Dawley rats; conditions: Rattus norvegicus, po, 96 h
Description: The selective modulating activity of the androgen receptor was tested in a model of castrated immature young rats. This model, which is widely recognised for evaluating the anabolic effects of androgen compounds on the muscles and on the genitalia, has been described by Hershberger et al. 1953 Proc. Soc. Expt. Biol. Med. 83:175.
The method is based on the measurement of the well-known effects of androgens on the growth of the muscles and the accessory male sex organs in animals, and also in men. The consequences of castration appear in the form of a rapid involution and atrophy of the prostate and the seminal vesicles and of the anus-lifting muscle (levator ani). This effect may be completely compensated by an exogeneous administration of androgen, in particular of testosterone. The model is thus used to determine the capacity of the tested molecules to maintain the weight of the accessory sex and muscle organs in immature castrated rats, and therefore their androgenic efficacy.
Immature young Sprague Dawley rats (4 to 5 weeks old) weighing approximately 140-160 g (Charles River, Les Oncins, FRANCE) were distributed randomly in various groups and were kept in an environment at 22±2° C. with an alternating day/night cycle of 12 hours and ad libitum access to food and drink.
On day 0, that is, seven days before commencement of the first treatment, the rats were weighed individually then anaesthetised with an intraperitoneal dose of Ketamine/xylazine (85/15 mg/kg, approximately 2 ml/kg). Each animal was then placed on a sterile field and the abdomen and the scrotum were disinfected with Betadine and 70% alcohol. In the case of the orchidectomised control animals (ORX), the testicles were removed via an incision in the middle of the scrotum. A sterile suture was then made to ligature the supra-testicular portion of the tissue prior to surgical section of each testicle. The groups of animals to be treated by the tested compounds were operated on in an identical manner. In the case of the intact control animals (SHAM), the testicles were similarly extracted and reintroduced delicately to their original location. The site of surgical intervention was then sutured using sterile suture thread, and the site was disinfected again by application of Betadine. Each animal was then kept under a sterile pad until it awoke, before being returned to its cage. The animals were kept in an environment at 22±2° C. with an alternating day/night cycle of 12 hours and ad libitum access to food and drink. The animals were treated with the molecules to be tested from post-surgery day 7 and until day 10 preceding sacrifice (day 11).
The rats were split into groups and treated daily from day 7 to day 10 under the conditions defined below: • 1. SHAM control group: Vehicle (0.5% aqueous methyl cellulose) administered per os. • 2. ORX control group: Vehicle (0.5% aqueous methyl cellulose) administered per os. • 3. Treated ORX group: The tested compounds were administered individually per os in suspension in the vehicle described above, in a dose of 30 mg/kg.
After treatment for 4 successive days, the animals were decapitated using a guillotine. The levator ani and the ventral prostate were removed and weighed individually. For comparing inter-experimental data, the weight of each organ was standardised and expressed in milligrammes per 100 g of the weight of the animal (W). For each organ, the average of the standardised weights of the ORX control group was fixed by definition at 0% and the average of the standardised weights of the SHAM control group was fixed by definition at 100%. The efficacy of each product was expressed as a percentage and calculated using the following formula: (Wtreated−WORX)/(WSHAM−WORX)×100 A subsequent ANOVA test was used for statistical analysis to identify the differences between groups.

[3] = ORX rats, 30 mg/kg per os, 4 successive days, ORX = 0%, SHAM = 100%, read-out: anabolic protection efficacy with regard to levator ani
[4] = ORX rats, 30 mg/kg per os, 4 successive days, ventral prostate, ORX = 0%, SHAM = 100%, read-out: androgenic efficacy with regard to the prostate
[5] = read-out: anabolic protection efficacy with regard to levator ani
[6] = read-out: androgenic efficacy with regard to the prostate

SMILES | inhibition in vivo at 30 mg/kg [1] | inhibition in vivo at 30 mg/kg [2, 3] | inhibition in vivo at 30 mg/kg [2, 4] | inhibition in vivo at 30 mg/kg [2, 5] | inhibition in vivo at 30 mg/kg [2, 6]
CN1C(=O)N(c2ccc(Cl)c(Cl)c2)C(=O)C1c1ccc(O)cc1 (stereo not drawn) [Example 1, 1-(3,4-dichlorophenyl)-4-(4-hydroxyphenyl)-3-methylimidazolidine-2,5-dione] | 40 to 130% | 50 to 140% | 5 to 70% | – | –
CN1C(=O)N(c2ccc(C#N)c(C(F)(F)F)c2)C(=O)C1(C)c1ccc(O)cc1 (stereo not drawn) [Example 5, 4-[3,4-dimethyl-2,5-dioxo-4-(4-hydroxyphenyl)imidazolidin-1-yl]-2-trifluoromethylbenzonitrile] | 40 to 130% | – | – | 50 to 140% | 5 to 70%
C=CCN1C(=O)N(c2ccc(Cl)c(Cl)c2)C(=O)C1c1ccc(O)cc1 (stereo not drawn) [Example 3, 1-(3,4-dichlorophenyl)-4-(4-hydroxyphenyl)-3-(2-propenyl)imidazolidine-2,5-dione] | 40 to 130% | 50 to 140% | 5 to 70% | – | –
CC#CCN1C(=O)N(c2ccc(C#N)c(C(F)(F)F)c2)C(=O)C1(C)c1ccc(O)cc1 (stereo not drawn) [Example 220, 4-[3-(2-butynyl)-4-(4-hydroxyphenyl)-4-methyl-2,5-dioxoimidazolidin-1-yl]-2-trifluoromethylbenzonitrile] | 40 to 130% | – | – | 50 to 140% | 5 to 70%
C#CCN1C(=O)N(c2ccc(C#N)c(C(F)(F)F)c2)C(=O)C1(C)c1ccc(O)cc1 (stereo not drawn) [Example 6, 4-[2,5-dioxo-4-(4-hydroxyphenyl)-4-methyl-3-(2-propynyl)imidazolidin-1-yl]-2-trifluoromethylbenzonitrile] | 40 to 130% | – | – | 50 to 140% | 5 to 70%
CN1C(=O)N(c2ccc(C#N)c(C(F)(F)F)c2)C(=O)[C@@]1(C)c1ccc(O)cc1 [Example 155, (R)-4-[3,4-dimethyl-2,5-dioxo-4-(4-hydroxyphenyl)imidazolidin-1-yl]-2-trifluoromethylbenzonitrile] | 40 to 130% | – | – | 50 to 140% | 5 to 70%
C#CCN1C(=O)N(c2ccc(C#N)c(C(F)(F)F)c2)C(=O)C1c1ccc(O)cc1 (stereo not drawn) [Example 4, 4-[2,5-dioxo-4-(4-hydroxyphenyl)-3-(2-propynyl)imidazolidin-1-yl]-2-trifluoromethylbenzonitrile] | 40 to 130% | – | – | 50 to 140% | 5 to 70%
